Results taken from patent US20050075403A1, “Ambroxol for the treatment of inflammation in the pharynx” (priority 2003, published 2005).

What was measured:
[1] = test system: interleukin-2 (IL-2); settings: bronchoalveolar lavage cells and peripheral blood mononuclear cells stimulated with phythemagglutine; cited from earlier work
[2] = test system: tumor necrosis factor α (TNF-α); settings: human mononuclear cells stimulated with lipopolysaccharide; cited from earlier work
[3] = test system: interferon-γ (INF-γ); settings: bronchoalveolar lavage cells and peripheral blood mononuclear cells stimulated with phythemagglutine; cited from earlier work
[4] = test system: IL-1; settings: human mononuclear cells stimulated with lipopolysaccharide; cited from earlier work
[5] = test system: IL-10 / IL-12 balance; settings: in vitro; cited from earlier work
[6] = test system: patients suffering from oro-pharyngeal catarrh accompanied by pain (sore throat); assay: Example 1: placebo-controlled double-blind trial, two days of treatment with ambroxol lozenges; format: in vivo, human; settings: up to six lozenges containing 20 mg ambroxol hydrochloride per day, vs placebo
Text: The activity of ambroxol according to the invention is intended to be illustrated by the following three examples of clinical trials which investigate: 1) the […] of ambroxol lozenges by measurement of the redness symptom and 2) the efficacy and tolerability of ambroxol lozenges relative to placebo in relieving the symptoms of sore throat of at least moderately severe intensity in patients suffering from oro-pharyngeal catarrh accompanied by pain.
The first study was a multi-centre, prospective, placebo-controlled, randomized, double-blind trial involving two days of treatment with up to six lozenges containing 20 mg ambroxol hydrochloride per day.
109 patients were treated with ambroxol and 109 patients with placebo.

[7] = test system: TNF; settings: in vitro; cited from earlier work

Row | SMILES | secretion of interleukin-2 (IL-2) [1] | production of tumor necrosis factor α (TNF-α) [2] | secretion of interferon-γ (INF-γ) [3] | production of IL-1 [4] | inflammatory responses, local balance of IL-10 and IL-12 [5] | pain (primary endpoint) [6] | release of inflammatory TNF [7]
1 | Nc1c(Br)cc(Br)cc1CN[C@H]1CC[C@H](O)CC1 [ambroxol, trans-4-(2-amino-3,5-dibromobenzylamino)-cyclohexanole] | decrease the secretion | inhibit the production | decrease the secretion | inhibit the production | enhance inflammatory responses | reduced statistically significantly | 
2 | CC(C(=O)O)c1cccc(C(=O)c2ccccc2)c1 (stereo not shown) [ketoprofen] |  |  |  |  |  |  | induce the release
